According to US20030143713A1, “Novel glycosidase inhibitors and their pharmacological uses, in particular for treating diabetes” (priority 1999, published 2003):

Molecular target: T1, isoenzyme 1 of barley α-amylase (AMY1) (Hordeum vulgare, UniProt P00693)
T1 construct: made in house; host or cells: Pichia pastoris
Experiment: X-ray crystal structure of the AMY1/spermidine complex (cocrystallisation with spermidine, then soaking in acarbose)
Type: binding
Procedure: The 9 C-terminal residues of recombinant isoenzyme 1 of barley α-amylase (AMY1) were cleaved in order to obtain a C-terminal end of the same length as that of isoenzyme 2 (AMY2). The protein was then over-expressed in Pischia pastoris, purified and concentrated.
The protein preparation used for crystallisation has a concentration of 5.1 mg/ml and is in a solution of 10 mM MES (2-[N]-Morpholino ethane sulphonic acid), 100 mM CaCl2, 0.02% NaN3, pH 6.7.
The crystals were obtained by cocrystallisation thanks to the vapour diffusion principle using the hanging droplet technique. To do this, 2.5 μl of polyethylene glycol 8000 at 21% as a precipitating agent and 0.5 μl of a 0.1M solution of spermidine as a crystallisation additive were added to 2 μl of the protein solution described previously. This droplet was equilibrated at 19° C. against a reservoir containing 500 μl of polyethylene glycol 8000 at 21%.
The crystals were then immersed for 20 hours in a polyethylene glycol 8000 solution at 21% containing 10 mM of acarbose (a pseudo-tetrasaccharide).
Collection of the diffraction data was carried out using an X-ray generator (CuKα radiation—wavelength 1.5418 Å) with a rotating anode (Nonius 581) operating at 40 kV and 90 mA (i.e. 3.6 kW) with a graphite monochromator coupled to a two-dimensional detector of Image Plate type (MarResearch 345) of 34.5 cm in diameter.
A set of 180 diffraction exposures (each corresponding to 1° of oscillation of the crystal) was collected at 15° C., the crystal being capillary mounted and positioned at 120 mm from the detector, with an exposure time of the crystal to the X-rays of 500s per exposure. The highest resolution of this set of data is 2.44 Å.
We then determined the space group as being a P212121. The asymmetrical unit is composed of a molecule of the AMY1/spermidine complex, which corresponds to a volume of solvent in the lattice of 53%.
Subsequent processing of the data was carried out using the CCP4 suite of programs (CCP4, 1994).
The molecular replacement method was used thanks to the AmoRe software (Navaza, 1994) using the structure of isoenzyme 2 of barley α-amylase (AMY2-accession code PDB: 1AMY) (Kadziola et al., 1994 and Kadziola et al., 1998) as a guide model because of the significant sequence homology (80%) between this initial model and our protein of interest (AMY1). Refinement phases using molecular dynamic techniques (simulated annealing—Brünger et al., 1990) were carried out with CNS software version 0.9a (Brünger et al., 1998) alternating with model manipulations. […] In order to do this, 2Fo-Fc and Fo-Fc electronic density maps were calculated. […]

[1] = experimental AMY1/spermidine complex

T1 sequence (P00693 25-429 limits assumed): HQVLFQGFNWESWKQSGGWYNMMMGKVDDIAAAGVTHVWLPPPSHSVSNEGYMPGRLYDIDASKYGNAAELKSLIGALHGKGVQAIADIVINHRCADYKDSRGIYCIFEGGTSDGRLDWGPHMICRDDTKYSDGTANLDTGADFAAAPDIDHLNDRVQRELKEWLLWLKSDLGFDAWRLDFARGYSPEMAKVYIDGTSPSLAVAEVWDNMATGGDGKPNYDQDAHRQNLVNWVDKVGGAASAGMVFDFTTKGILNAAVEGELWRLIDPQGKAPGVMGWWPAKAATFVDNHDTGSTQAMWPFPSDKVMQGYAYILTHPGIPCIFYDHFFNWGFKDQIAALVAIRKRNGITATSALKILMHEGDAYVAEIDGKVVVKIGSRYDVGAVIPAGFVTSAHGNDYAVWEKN

Q: With `NCCCCNCCCN` [spermidine] as the molecule, how does the “Direct hydrogen bonds with a residue” value [1] read?
A: 5

Q: And the “Direct hydrogen bonds with a water molecule” value [1]?
A: 4

Q: And the “total of H bonds stabilising the complex” value (experimental AMY1/spermidine structure)?
A: 9

Q: What about the “affinity for the enzyme compared with acarbose type inhibitors” value (in the presence of the two types of inhibitors (spermidine and acarbose)) of the same molecule?
A: significantly greater affinity for the enzyme in comparison to the acarbose type inhibitors
